Some test systems named below: LOX IMVI melanoma; HOP-92 NSCLC; MOLT-4 leukemia; TK-10 renal; UO-31 renal; OVCAR-8 ovarian; NCI-H226 lung; KM12 colon; RXF 393 renal; 786-0 renal.
Assay in all cases: NCI tumour cell line growth inhibition, 48 h

This passage reports TGI and GI50 results from PubChem BioAssay (NCI).

Values joined by “and” are separate entries in the source; they are usually repeats but may differ in a detail not shown here. Equal entries are not always repeated.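 Test compounds were applied to cells in 96-well plates for 48 hours at 5 doses. GI50 marks 50% less growth. TGI: total growth inhibition.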

In the case of `C=CN1C(=O)OC(c2ccccc2)C1c1ccccc1` (stereo unspecified), the TGI with LOX IMVI melanoma, in the assay with HOP-92 NSCLC, in the assay on MOLT-4 leukemia, with TK-10 renal, in the assay on UO-31 renal and in the assay with OVCAR-8 ovarian was over 100 µM throughout. Also, the TGI with NCI-H226 lung, with KM12 colon, in the assay on RXF 393 renal and in the assay on 786-0 renal was over 100 µM throughout. Moreover, the GI50 in the assay on HOP-92 NSCLC, in the assay on MOLT-4 leukemia, in the assay on TK-10 renal, with UO-31 renal, in the assay with OVCAR-8 ovarian and in the assay on NCI-H226 lung was over 100 µM throughout. Also, the GI50 with KM12 colon, with RXF 393 renal and in the assay on 786-0 renal was over 100 µM throughout.

On to `Cl.[Pt].[c-]1ccccc1-c1ccccn1.c1ccc(P(c2ccccc2)C([PH+](c2ccccc2)c2ccccc2)[PH+](c2ccccc2)c2ccccc2)cc1`, for which the GI50 with LOX IMVI melanoma was 1.65 µM; in the assay on HOP-92 NSCLC it was 1.41 µM; in the assay with MOLT-4 leukemia, 2.13 µM; with TK-10 renal, 1.74 µM; in the assay with UO-31 renal, 1.8 µM; with OVCAR-8 ovarian it was 0.853 µM. The GI50 is 1.88 µM in the assay on NCI-H226 lung, 2.48 µM with KM12 colon, 1.48 µM in the assay on RXF 393 renal and 3.2 µM with 786-0 renal. Moreover, the TGI in the assay on LOX IMVI melanoma was 4.6 µM; in the assay on HOP-92 NSCLC, 5.18 µM; with MOLT-4 leukemia, 11.6 µM; in the assay with TK-10 renal it was 15.5 µM; in the assay with UO-31 renal, 6.28 µM; in the assay with OVCAR-8 ovarian, over 100 µM. Also, the TGI in the assay on NCI-H226 lung came to 9.81 µM; in the assay with KM12 colon, 7.22 µM; in the assay with RXF 393 renal, 4.01 µM; with 786-0 renal, 14.4 µM.

As for `CCN1CCN(c2nc(NNC(=O)Cc3ccccc3)nc(N3CCN(C(c4ccccc4)c4ccccc4)CC3)n2)CC1`, the GI50 is 1.89 µM with LOX IMVI melanoma; 1.89 µM in the assay with HOP-92 NSCLC; 2.63 µM with MOLT-4 leukemia; 1.97 µM in the assay with TK-10 renal; 1.39 µM in the assay on UO-31 renal; 2.51 µM with OVCAR-8 ovarian. Besides, the GI50 in the assay with NCI-H226 lung was 16.9 µM; in the assay with KM12 colon, 2.07 µM; with RXF 393 renal it was 1.92 µM; in the assay on 786-0 renal it was 1.74 µM. The TGI in the assay on LOX IMVI melanoma is 3.43 µM; with HOP-92 NSCLC, 4.7 µM; in the assay with MOLT-4 leukemia it was 8.39 µM; with TK-10 renal, 3.85 µM; in the assay on UO-31 renal, 2.82 µM; in the assay on OVCAR-8 ovarian, 6.57 µM. Also, the TGI with NCI-H226 lung is 42.7 µM; with KM12 colon it was 4.35 µM; in the assay with RXF 393 renal it was 4.08 µM; in the assay with 786-0 renal, 3.14 µM.

Consider `Cc1c[nH]c2c1C13CC1CN(C(=O)c1cc4cc(NC(=O)c5cc6ccccc6o5)ccc4[nH]1)C3=CC2=O` (stereo unspecified), for which the GI50 in the assay with LOX IMVI melanoma, with HOP-92 NSCLC, in the assay on MOLT-4 leukemia, in the assay with UO-31 renal and in the assay with OVCAR-8 ovarian was over 1.17 ng/mL each time. Further, the TGI is under 0.001 µM in the assay with LOX IMVI melanoma; 0.0031 µM with MOLT-4 leukemia; under 0.001 µM in the assay on TK-10 renal; under 0.001 µM with OVCAR-8 ovarian; under 0.001 µM in the assay with NCI-H226 lung; under 0.001 µM in the assay with KM12 colon. In addition, the TGI with RXF 393 renal and in the assay on 786-0 renal was under 0.001 µM throughout.

With `CCCS(=O)(=O)Nc1ccc(F)c(C(=O)c2c[nH]c3ncc(-c4ccc(Cl)cc4)cc23)c1F`, the GI50 in the assay on LOX IMVI melanoma was 1.47 µM and 1.27 µM; in the assay with HOP-92 NSCLC it was 2.63 µM and 4.84 µM; with MOLT-4 leukemia, 3.72 µM and > 8.33 µM; in the assay on TK-10 renal, 5.99 µM and 5.48 µM; with UO-31 renal, 4.96 µM and 4.79 µM; in the assay with OVCAR-8 ovarian it was 6.16 µM and > 8.65 µM. Also, the GI50 in the assay on NCI-H226 lung is 9.23 µM and > 5.91 µM; with KM12 colon, 4.17 µM and 6.02 µM; in the assay with RXF 393 renal, 1.89 µM and 3.53 µM; in the assay on 786-0 renal, 4.13 µM and 5.43 µM. In addition, the TGI in the assay with LOX IMVI melanoma was 15.2 µM and > 10 µM; in the assay on HOP-92 NSCLC it was 12.5 µM and > 10 µM; in the assay with MOLT-4 leukemia, 16.1 µM and > 10 µM; in the assay with TK-10 renal it was 34.6 µM and > 10 µM; with UO-31 renal, 15.1 µM and > 10 µM; in the assay on OVCAR-8 ovarian, 43.6 µM and > 10 µM. In addition, the TGI with NCI-H226 lung was 36.7 µM and > 10 µM; in the assay on KM12 colon it was 16.8 µM and > 10 µM; in the assay with RXF 393 renal it was 6.58 µM and > 10 µM; in the assay on 786-0 renal, 26.2 µM and > 10 µM.

On to `Nc1ncnc2c1c(C(F)(F)F)cn2[C@@H]1O[C@H](CO)[C@@H](O)[C@H]1O`, for which the GI50 in the assay on LOX IMVI melanoma was 0.051 µM; in the assay on HOP-92 NSCLC, 0.222 µM; in the assay on MOLT-4 leukemia, 0.324 µM; in the assay on TK-10 renal, 0.926 µM; in the assay with UO-31 renal it was 0.928 µM; with OVCAR-8 ovarian, 0.595 µM. The GI50 was 1.12 µM in the assay on NCI-H226 lung, 0.134 µM in the assay with KM12 colon, 0.237 µM with RXF 393 renal and 2.15 µM in the assay with 786-0 renal. Besides, the TGI with LOX IMVI melanoma is over 100 µM; with HOP-92 NSCLC, 6.62 µM; in the assay on MOLT-4 leukemia, 1.48 µM; in the assay on TK-10 renal it was over 100 µM; in the assay with UO-31 renal, 5.01 µM; with OVCAR-8 ovarian, over 100 µM. In addition, the TGI in the assay on NCI-H226 lung is 79.7 µM; in the assay with RXF 393 renal it was 1.67 µM; in the assay with 786-0 renal it was over 100 µM.
